In ChEMBL document CHEMBL3860096, “Fragment-to-Lead Medicinal Chemistry Publications in 2015” (J Med Chem, 2017):
pIC50, pKd, pKi: −log10 of the molar value.

Legend:
[1] = Inhibition of Haemophilus influenzae NAD+-dependent DNA ligase A
[2] = Inhibition of Streptococcus pneumoniae NAD+-dependent DNA ligase A
[3] = Inhibition of DNA gyrase B (unknown origin)
[4] = target: Collagenase 3 (Homo sapiens, UniProt P45452); test: Inhibition of human recombinant MMP13 using thiopeptide as chromogenic substrate by colorimetric assay
[5] = target: Proto-oncogene tyrosine-protein kinase receptor Ret (Homo sapiens) (UniProt P07949); test: Inhibition of human recombinant RET assessed as residual activity at 100 uM by microfluidics separation based assay
Proto-oncogene tyrosine-protein kinase receptor Ret (Homo sapiens), sequence (P07949 whole entry): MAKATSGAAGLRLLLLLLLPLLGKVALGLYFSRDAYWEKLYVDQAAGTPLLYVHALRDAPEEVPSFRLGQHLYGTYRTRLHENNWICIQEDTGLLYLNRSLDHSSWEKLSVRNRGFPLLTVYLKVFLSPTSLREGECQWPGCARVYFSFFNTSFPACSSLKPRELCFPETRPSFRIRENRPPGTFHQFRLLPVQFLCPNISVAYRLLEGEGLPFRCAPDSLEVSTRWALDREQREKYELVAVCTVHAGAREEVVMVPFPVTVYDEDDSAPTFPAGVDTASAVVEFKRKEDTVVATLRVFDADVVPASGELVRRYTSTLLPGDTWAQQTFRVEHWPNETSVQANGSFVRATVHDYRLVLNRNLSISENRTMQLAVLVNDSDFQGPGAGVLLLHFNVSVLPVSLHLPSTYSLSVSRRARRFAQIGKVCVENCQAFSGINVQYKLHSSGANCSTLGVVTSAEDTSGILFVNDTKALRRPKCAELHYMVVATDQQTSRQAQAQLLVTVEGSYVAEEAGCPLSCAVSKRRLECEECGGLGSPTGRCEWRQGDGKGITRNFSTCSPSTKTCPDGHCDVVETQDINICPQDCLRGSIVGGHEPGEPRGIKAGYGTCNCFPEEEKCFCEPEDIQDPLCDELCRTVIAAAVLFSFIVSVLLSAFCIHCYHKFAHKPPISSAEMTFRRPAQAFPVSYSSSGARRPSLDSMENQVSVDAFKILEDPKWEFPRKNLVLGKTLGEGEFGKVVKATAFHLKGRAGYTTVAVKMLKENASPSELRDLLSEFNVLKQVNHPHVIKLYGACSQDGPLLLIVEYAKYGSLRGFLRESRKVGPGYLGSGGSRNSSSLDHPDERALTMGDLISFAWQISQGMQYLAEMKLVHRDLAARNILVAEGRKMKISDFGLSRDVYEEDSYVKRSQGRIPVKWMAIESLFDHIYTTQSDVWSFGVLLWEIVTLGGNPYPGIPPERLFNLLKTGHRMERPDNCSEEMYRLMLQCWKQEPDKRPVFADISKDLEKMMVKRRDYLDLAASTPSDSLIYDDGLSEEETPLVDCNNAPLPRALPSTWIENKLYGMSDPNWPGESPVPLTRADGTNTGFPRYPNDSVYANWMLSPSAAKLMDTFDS

[6] = target: Coagulation factor XI (Homo sapiens, UniProt P03951); test: Inhibition of human factor 11a using pyroGlu-Pro-Arg-pNA.HCl substrate
Coagulation factor XI, sequence (P03951 19-387 limits assumed): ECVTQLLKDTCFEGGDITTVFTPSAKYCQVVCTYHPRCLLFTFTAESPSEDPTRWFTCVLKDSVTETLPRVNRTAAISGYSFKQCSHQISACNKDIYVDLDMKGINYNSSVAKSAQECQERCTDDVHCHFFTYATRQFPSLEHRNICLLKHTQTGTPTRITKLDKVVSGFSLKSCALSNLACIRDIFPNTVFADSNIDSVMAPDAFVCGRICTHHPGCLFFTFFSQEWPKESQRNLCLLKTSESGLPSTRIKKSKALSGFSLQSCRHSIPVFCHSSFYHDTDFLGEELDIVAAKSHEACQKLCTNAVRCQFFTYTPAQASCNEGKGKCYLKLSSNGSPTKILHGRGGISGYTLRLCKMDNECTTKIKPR
Coagulation factor XI, sequence (P03951 388-625 limits assumed): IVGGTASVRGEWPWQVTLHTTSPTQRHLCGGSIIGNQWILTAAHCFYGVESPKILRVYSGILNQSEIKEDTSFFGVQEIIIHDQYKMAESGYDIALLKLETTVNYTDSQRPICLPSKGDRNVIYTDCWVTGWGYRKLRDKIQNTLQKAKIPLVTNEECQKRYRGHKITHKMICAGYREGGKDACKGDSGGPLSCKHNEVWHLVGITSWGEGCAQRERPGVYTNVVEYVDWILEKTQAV

[7] = target: DNA repair protein RAD51 homolog 1 (Homo sapiens, UniProt Q06609); test: Binding affinity to of humanised RAD51 C-terminal ATPase domain (with deletion of L2 loop residues 288 to 314) from Pyrococcus furiosus expressed in Escherichia coli by ITC method
DNA repair protein RAD51 homolog 1, sequence (Q06609 2-339 limits assumed): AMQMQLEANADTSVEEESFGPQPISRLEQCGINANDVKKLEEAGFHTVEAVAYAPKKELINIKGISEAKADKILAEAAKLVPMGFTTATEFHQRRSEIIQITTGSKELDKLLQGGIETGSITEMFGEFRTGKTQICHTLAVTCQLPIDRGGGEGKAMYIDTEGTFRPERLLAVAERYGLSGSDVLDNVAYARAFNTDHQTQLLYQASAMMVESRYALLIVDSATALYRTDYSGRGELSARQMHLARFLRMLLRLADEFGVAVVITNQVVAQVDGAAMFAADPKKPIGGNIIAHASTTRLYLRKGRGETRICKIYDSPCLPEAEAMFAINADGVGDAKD

CC(C)(C)c1nc(-c2ccc[nH]2)c2cc(C(N)=O)c(N)nc2n1
pIC50 [1]: 7.00 | pIC50 [2]: 7.00

Cc1ccc2cc(C(N)=O)cc(O)c2n1
pIC50 [1]: < 3.30 | pIC50 [2]: < 3.30

Cc1cc(-c2cc(NC(=O)c3ccc(C(=O)O)cc3C)[nH]n2)cc(C(F)(F)F)c1
pIC50 [3]: 6.80

COc1cccc(CNC(=O)C#Cc2cn(Cc3ccc(C(=O)O)cc3)c(=O)[nH]c2=O)c1
pIC50 [4]: 7.96

Brc1ccc2c(c1)ncn2-c1ccccc1
Activity [5]: 28%

O=C(N[C@@H](Cc1ccccc1)C(=O)NCc1cc2cc(Cl)ccc2[nH]c1=O)c1ccc2[nH]c(=O)cc(O)c2c1
pKi [6]: 9.30

O=S(=O)(NCCc1c[nH]c2ccccc12)c1cc(Br)c(Cl)s1
pKd [7]: 5.89

COC(=O)[C@@H](N)Cc1c[nH]c2ccccc12 [TRYPTOPHAN METHYL ESTER]
pKd [7]: 3.24
